# Source: PubChem BioAssay AID2060513 (Molecular Pharmacology Branch, DTP, NCI, 2025)
# pIC50: −log10 of the molar value.
# Tested on: 299254-011-R-J1-PDC complex spheroids viability
# Assay: Anticancer human tumor 299254-011-R-J1-PDC patient-derived melanoma cell line growth inhibition [GQUAD]
# Conditions: for pIC50: curve of first compound; for viability, T/C: stronger effect = lower value
# In short: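 Tumor cells were grown as complex spheroids with HUVEC endothelial cells and mesenchymal stem cells as stroma. G-quadruplex stabilizers were combined with targeted agents over half-log dilutions from near the clinical Cmax, or from 10 microM.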
# [1] = second compound 0.0316 µM, first compound 0.0316 µM
# [2] = second compound 0.0316 µM, first compound 0.1 µM
# [3] = second compound 0.0316 µM, first compound 0.316 µM
# [4] = second compound 0.0316 µM, first compound 1 µM
# [5] = second compound 0.0316 µM, first compound 3.16 µM
# [6] = second compound 0.0316 µM, first compound 10 µM
# [7] = second compound 0.1 µM, first compound 0.0316 µM
# [8] = second compound 0.1 µM, first compound 0.1 µM
# [9] = second compound 0.1 µM, first compound 0.316 µM
# [10] = second compound 0.1 µM, first compound 1 µM
# [11] = second compound 0.1 µM, first compound 3.16 µM
# [12] = second compound 0.1 µM, first compound 10 µM
# [13] = second compound 0.316 µM, first compound 0.0316 µM
# [14] = second compound 0.316 µM, first compound 0.1 µM
# [15] = second compound 0.316 µM, first compound 0.316 µM
# [16] = second compound 0.316 µM, first compound 1 µM
# [17] = second compound 0.316 µM, first compound 3.16 µM
# [18] = second compound 0.316 µM, first compound 10 µM
# [19] = second compound 1 µM, first compound 0.0316 µM
# [20] = second compound 1 µM, first compound 0.1 µM
# [21] = second compound 1 µM, first compound 0.316 µM
# [22] = second compound 1 µM, first compound 1 µM
# [23] = second compound 1 µM, first compound 3.16 µM
# [24] = second compound 1 µM, first compound 10 µM
# [25] = second compound 3.16 µM, first compound 0.0316 µM
# [26] = second compound 3.16 µM, first compound 0.1 µM
# [27] = second compound 3.16 µM, first compound 0.316 µM
# [28] = second compound 3.16 µM, first compound 1 µM
# [29] = second compound 3.16 µM, first compound 3.16 µM
# [30] = second compound 3.16 µM, first compound 10 µM
# [31] = second compound 10 µM, first compound 0.0316 µM
# [32] = second compound 10 µM, first compound 0.1 µM
# [33] = second compound 10 µM, first compound 0.316 µM
# [34] = second compound 10 µM, first compound 1 µM
# [35] = second compound 10 µM, first compound 3.16 µM
# [36] = second compound 10 µM, first compound 10 µM
# 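Note: spheroids exposed to the agents for seven days before readout.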
# 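Throughout, for viability, T/C: percent viability relative to DMSO vehicle control wells = 100%.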
compound,measurement,setting,value
CC(C)(O)C1CCC(Nc2ccc3ncc(-c4cccc(C(F)(F)F)c4)n3n2)CC1 (stereo not drawn) + CN(C)c1ccc(Nc2c3ccc(NC(=O)CCN4CCCC4)cc3nc3cc(NC(=O)CCN4CCCC4)ccc23)cc1,pIC50,second compound 0.0316 µM,< 5.00
same,pIC50,second compound 0.1 µM,< 5.00
same,pIC50,second compound 0.316 µM,< 5.00
same,pIC50,second compound 1 µM,< 5.00
same,pIC50,second compound 3.16 µM,< 5.00
same,pIC50,second compound 10 µM,5.56
same,"viability, T/C",[1],107%
same,"viability, T/C",[2],117%
same,"viability, T/C",[3],130%
same,"viability, T/C",[4],98.6%
same,"viability, T/C",[5],95.1%
same,"viability, T/C",[6],92.2%
same,"viability, T/C",[7],97.2%
same,"viability, T/C",[8],94.7%
same,"viability, T/C",[9],97.8%
same,"viability, T/C",[10],94.5%
same,"viability, T/C",[11],94%
same,"viability, T/C",[12],121%
same,"viability, T/C",[13],103%
same,"viability, T/C",[14],92%
same,"viability, T/C",[15],101%
same,"viability, T/C",[16],89.5%
same,"viability, T/C",[17],85.1%
same,"viability, T/C",[18],133%
same,"viability, T/C",[19],89.7%
same,"viability, T/C",[20],103%
same,"viability, T/C",[21],88.6%
same,"viability, T/C",[22],107%
same,"viability, T/C",[23],82.8%
same,"viability, T/C",[24],100%
same,"viability, T/C",[25],91.5%
same,"viability, T/C",[26],93.9%
same,"viability, T/C",[27],117%
same,"viability, T/C",[28],112%
same,"viability, T/C",[29],65.5%
same,"viability, T/C",[30],84.2%
same,"viability, T/C",[31],105%
same,"viability, T/C",[32],103%
same,"viability, T/C",[33],103%
same,"viability, T/C",[34],111%
same,"viability, T/C",[35],27.6%
same,"viability, T/C",[36],56.4%
COc1cccc2c1C(=O)c1c(O)c3c(c(O)c1C2=O)CC(O)(C(=O)CO)CC3OC1CC(N)C(O)C(C)O1 (stereo not drawn) + CN(C)c1ccc(Nc2c3ccc(NC(=O)CCN4CCCC4)cc3nc3cc(NC(=O)CCN4CCCC4)ccc23)cc1,pIC50,second compound 0.0316 µM,5.37
same,pIC50,second compound 0.1 µM,5.25
same,pIC50,second compound 0.316 µM,5.30
same,pIC50,second compound 1 µM,5.31
same,pIC50,second compound 3.16 µM,5.26
same,pIC50,second compound 10 µM,5.19
same,"viability, T/C",[1],109%
same,"viability, T/C",[2],103%
same,"viability, T/C",[3],90.5%
same,"viability, T/C",[4],72.5%
same,"viability, T/C",[5],61.9%
same,"viability, T/C",[6],28.8%
same,"viability, T/C",[7],93.1%
same,"viability, T/C",[8],106%
same,"viability, T/C",[9],94.6%
same,"viability, T/C",[10],79.8%
same,"viability, T/C",[11],71%
same,"viability, T/C",[12],31.5%
same,"viability, T/C",[13],112%
same,"viability, T/C",[14],110%
same,"viability, T/C",[15],81%
same,"viability, T/C",[16],87.1%
same,"viability, T/C",[17],64.8%
same,"viability, T/C",[18],30.7%
same,"viability, T/C",[19],99.7%
same,"viability, T/C",[20],96.3%
same,"viability, T/C",[21],90.1%
same,"viability, T/C",[22],89.5%
same,"viability, T/C",[23],63.4%
same,"viability, T/C",[24],27.3%
same,"viability, T/C",[25],109%
same,"viability, T/C",[26],107%
same,"viability, T/C",[27],83.7%
same,"viability, T/C",[28],92.4%
same,"viability, T/C",[29],72.4%
same,"viability, T/C",[30],27.3%
same,"viability, T/C",[31],91.8%
same,"viability, T/C",[32],110%
same,"viability, T/C",[33],87.6%
same,"viability, T/C",[34],99.6%
same,"viability, T/C",[35],75.9%
same,"viability, T/C",[36],34%
CC1COCCN1c1cc(-c2ccnn2C)c2ccnc(-c3ccn[nH]3)c2n1 (stereo not drawn) + CN(C)c1ccc(Nc2c3ccc(NC(=O)CCN4CCCC4)cc3nc3cc(NC(=O)CCN4CCCC4)ccc23)cc1,pIC50,second compound 0.0316 µM,6.73
same,pIC50,second compound 0.1 µM,6.72
same,pIC50,second compound 0.316 µM,6.69
same,pIC50,second compound 1 µM,6.69
same,pIC50,second compound 3.16 µM,6.67
same,pIC50,second compound 10 µM,6.67
same,"viability, T/C",[1],84.5%
same,"viability, T/C",[2],67.2%
same,"viability, T/C",[3],35%
same,"viability, T/C",[4],17.3%
same,"viability, T/C",[5],13%
same,"viability, T/C",[6],11.2%
same,"viability, T/C",[7],85.5%
same,"viability, T/C",[8],74.9%
same,"viability, T/C",[9],29.6%
same,"viability, T/C",[10],20%
same,"viability, T/C",[11],14.2%
same,"viability, T/C",[12],13%
same,"viability, T/C",[13],91.8%
same,"viability, T/C",[14],77.1%
same,"viability, T/C",[15],33.4%
same,"viability, T/C",[16],19%
same,"viability, T/C",[17],15.1%
same,"viability, T/C",[18],11.8%
same,"viability, T/C",[19],107%
same,"viability, T/C",[20],71.3%
same,"viability, T/C",[21],36.1%
same,"viability, T/C",[22],21.2%
same,"viability, T/C",[23],14.9%
same,"viability, T/C",[24],13.8%
same,"viability, T/C",[25],102%
same,"viability, T/C",[26],73.7%
same,"viability, T/C",[27],37%
same,"viability, T/C",[28],24.5%
same,"viability, T/C",[29],17.9%
same,"viability, T/C",[30],15.7%
same,"viability, T/C",[31],80.6%
same,"viability, T/C",[32],74.4%
same,"viability, T/C",[33],37.3%
same,"viability, T/C",[34],23.6%
same,"viability, T/C",[35],18.8%
same,"viability, T/C",[36],16.9%
CC(C)(O)C1CCC(Nc2ccc3ncc(-c4cccc(C(F)(F)F)c4)n3n2)CC1 (stereo not drawn) + Cc1[nH]c2ccc(F)cc2c1-c1nc2c3cccnc3c3ncccc3c2[nH]1,pIC50,second compound 0.0316 µM,< 5.00
same,pIC50,second compound 0.1 µM,< 5.00
same,pIC50,second compound 0.316 µM,< 5.00
same,pIC50,second compound 1 µM,< 5.00
same,pIC50,second compound 3.16 µM,< 5.00
same,pIC50,second compound 10 µM,5.59
same,"viability, T/C",[1],112%
same,"viability, T/C",[2],109%
same,"viability, T/C",[3],124%
same,"viability, T/C",[4],97.2%
same,"viability, T/C",[5],70.1%
same,"viability, T/C",[6],111%
same,"viability, T/C",[7],115%
same,"viability, T/C",[8],98.2%
same,"viability, T/C",[9],93.5%
same,"viability, T/C",[10],103%
same,"viability, T/C",[11],73.4%
same,"viability, T/C",[12],111%
same,"viability, T/C",[13],108%
same,"viability, T/C",[14],117%
same,"viability, T/C",[15],115%
same,"viability, T/C",[16],109%
same,"viability, T/C",[17],82.7%
same,"viability, T/C",[18],99.4%
same,"viability, T/C",[19],85.2%
same,"viability, T/C",[20],109%
same,"viability, T/C",[21],110%
same,"viability, T/C",[22],104%
same,"viability, T/C",[23],68.2%
same,"viability, T/C",[24],105%
same,"viability, T/C",[25],93%
same,"viability, T/C",[26],102%
same,"viability, T/C",[27],97%
same,"viability, T/C",[28],88%
same,"viability, T/C",[29],51%
same,"viability, T/C",[30],65.3%
same,"viability, T/C",[31],105%
same,"viability, T/C",[32],95.9%
same,"viability, T/C",[33],103%
same,"viability, T/C",[34],88%
same,"viability, T/C",[35],35.1%
same,"viability, T/C",[36],47.6%
